Measurements reported in patent US20060110790A1, “Expression system for large functional proteins” (priority 2002, published 2006).

Target: T1, individually expressed N half of ABCR containing 1D4 epitope tag (N*) (Homo sapiens, UniProt P78363)
T1 construct: The cDNAs coding for the N-half (amino acids 1-1325) and C-half (amino acids 1326-2273) of ABCR; made in house; host or cells: COS-1 cells
T1 sequence (P78363 1-1325): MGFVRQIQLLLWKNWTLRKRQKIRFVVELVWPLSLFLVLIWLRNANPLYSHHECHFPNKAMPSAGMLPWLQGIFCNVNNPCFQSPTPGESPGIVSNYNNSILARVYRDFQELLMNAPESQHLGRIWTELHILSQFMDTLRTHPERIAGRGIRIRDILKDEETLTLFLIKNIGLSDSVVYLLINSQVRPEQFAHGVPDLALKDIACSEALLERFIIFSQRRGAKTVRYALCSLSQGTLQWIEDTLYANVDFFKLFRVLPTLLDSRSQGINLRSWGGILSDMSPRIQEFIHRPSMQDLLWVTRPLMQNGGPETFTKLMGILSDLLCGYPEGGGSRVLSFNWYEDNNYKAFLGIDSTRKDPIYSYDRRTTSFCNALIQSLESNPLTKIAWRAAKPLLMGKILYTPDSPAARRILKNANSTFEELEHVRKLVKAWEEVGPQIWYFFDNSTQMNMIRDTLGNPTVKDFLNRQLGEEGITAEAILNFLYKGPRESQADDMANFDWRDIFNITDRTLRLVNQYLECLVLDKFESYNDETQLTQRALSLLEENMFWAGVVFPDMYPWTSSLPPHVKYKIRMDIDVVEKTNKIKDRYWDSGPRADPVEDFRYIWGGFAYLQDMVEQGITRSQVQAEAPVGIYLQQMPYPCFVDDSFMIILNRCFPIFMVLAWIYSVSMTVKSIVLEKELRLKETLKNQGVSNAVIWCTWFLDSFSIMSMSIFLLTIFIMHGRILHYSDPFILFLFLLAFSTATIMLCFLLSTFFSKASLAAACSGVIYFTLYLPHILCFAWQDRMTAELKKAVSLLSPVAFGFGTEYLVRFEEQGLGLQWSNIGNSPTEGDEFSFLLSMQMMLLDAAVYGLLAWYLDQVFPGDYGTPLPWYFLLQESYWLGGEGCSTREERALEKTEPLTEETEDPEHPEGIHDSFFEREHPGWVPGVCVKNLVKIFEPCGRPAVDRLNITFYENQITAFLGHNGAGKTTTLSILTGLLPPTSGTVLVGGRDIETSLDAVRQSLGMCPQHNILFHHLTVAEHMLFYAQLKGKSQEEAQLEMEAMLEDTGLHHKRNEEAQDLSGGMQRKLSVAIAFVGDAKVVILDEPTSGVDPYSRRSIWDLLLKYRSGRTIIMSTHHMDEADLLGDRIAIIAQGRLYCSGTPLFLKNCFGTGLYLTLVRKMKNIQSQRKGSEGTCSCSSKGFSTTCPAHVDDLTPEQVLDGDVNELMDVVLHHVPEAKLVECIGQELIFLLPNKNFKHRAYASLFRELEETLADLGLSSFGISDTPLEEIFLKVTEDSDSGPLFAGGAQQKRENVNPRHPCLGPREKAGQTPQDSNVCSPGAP
Assay: Retinal-stimulated ATPase activity of purified protein reconstituted in lipid vesicles
Type: biochemical
Conditions: individually expressed in COS-1 cells, 1D4-tagged, 50 μM [α32P]ATP
Description: Membranes (from two 10 cm dishes) were solubilized in 0.5 ml of 1% Triton-X100 in Buffer A (140 mM NaCl, 20 mM Tris-HCl, pH 7.4) for 20 min on ice. For ATPase assays, the membrane preparation step was omitted and the cell suspension was solubilized directly in Buffer B (10 mg/ml soybean phospholipids, 10% glycerol, 1 mM dithiothreitol, 100 mM NaCl, 3 mM MgCl2, 50 mM NaHEPES, pH 7.4) containing 18 mM CHAPS. The supernatant after a 10 min centrifugation at 40,000 rpm (TLA100.4 rotor) was mixed with 50 μl Rim3F4 Sepharose 2B for 1 h at 4° C. The beads were washed 6 times in Buffer A containing 0.2% Triton X-100 or Buffer B containing 10 mM CHAPS and eluted with 4% SDS (for electrophoresis) or 0.2 mg/ml Rim3F4 peptide (for reconstitution and determination of ATPase activity). Purified protein (24 μl) was incubated with 6 μl of 50 mg/ml lipid (1:1 mixture of dioleoylphosphatidylethanolamine and brain polar lipid, by weight) and 3 μl n-octylglucoside for 30 min on ice. The mixture was diluted rapidly with 200 μl of Buffer C (1 mM dithiothreitol, 140 mM NaCl, 25 mM NaHEPES, pH 7.4) and passed through a 200 μl Extracti-gel column (Pierce). The flow-through containing the reconstituted protein was used for determination of ATPase activity.
ATPase activity was measured as described previously (Ahn, J., Wong, J. T., and Molday, R. S. (2000) J Biol Chem 275(27), 20399-405) using 50 μM [α^32P]ATP and thin layer chromatography. The all-trans retinal concentration was determined spectrophotometrically (λ383 nm=42.88 mM^−1 cm^−1). Protein concentration was estimated from the eluate before reconstitution by laser densitometry of Coomassie blue stained gels using bovine serum albumin as a standard. […] Direct protein measurements after reconstitution by densitometry of Western blots was about half of that in the eluate. […]
ATPase Activity of Expressed N and C Halves—The basal and retinal activated ATPase activity of full-length ABCR and the N and C halves individually or co-expressed in COS-1 cells was determined after immunoaffinity purification and reconstitution into lipid vesicles. […]

`CC1=C(/C=C/C(C)=C/C=C/C(C)=C/C=O)C(C)(C)CCC1` [all-trans retinal] was tested, and the “stimulation of ATPase activity” value was “not stimulated”.
